A short description of series [1]: Pharmacokinetic test in monkeys. Format: in vivo. Conditions: male cynomolgus monkeys. As to the method: Experimental animals: male cynomolgus monkeys, 3-5 kg, 3-6 years old, divided into an intravenous group and an intragastric group.
Experimental method: on the day of the experiment, the monkeys were randomly grouped according to their body weights. […] Table 9. Administration information
Before and after the administration, 1.0 mL of blood was taken from the limb veins and placed in an EDTAK2 centrifuge tube. Centrifugation was carried out at 5000 rpm at 4°C for 10 min, and the plasma was collected. […] Before analysis and detection, all samples were stored at -80°C, and the samples were quantitatively analysed by LC-MS/MS. Table 10. Pharmacokinetic parameters of test compound in plasma of monkeys

Series [2] in a line: Pharmacokinetic test in mice (plasma and brain). Format: in vivo, C57 mice. The text has this:
2.1 Experimental animals: male C57 mice, 20-25 g, divided into an intravenous group and an intragastric group.
2.2 Experimental design: on the day of the experiment, the C57 mice were randomly grouped according to their body weights. […] Table 2. Administration information
The whole blood was centrifuged to separate the plasma; the brain tissue was rinsed with cold physiological saline to remove the residual blood on the surface, drained out and then homogenized. Before analysis and detection, all samples were stored at -80°C, and the samples were quantitatively analysed by LC-MS/MS. Table 3. Pharmacokinetic parameters of test compounds in mice

The target in the next series is T1, M4 receptor (Homo sapiens, UniProt P08173).
T1 construct: expressed in transfected cells; host or cells: CHO (M4-CHO cells)
T1 sequence (P08173 1-479): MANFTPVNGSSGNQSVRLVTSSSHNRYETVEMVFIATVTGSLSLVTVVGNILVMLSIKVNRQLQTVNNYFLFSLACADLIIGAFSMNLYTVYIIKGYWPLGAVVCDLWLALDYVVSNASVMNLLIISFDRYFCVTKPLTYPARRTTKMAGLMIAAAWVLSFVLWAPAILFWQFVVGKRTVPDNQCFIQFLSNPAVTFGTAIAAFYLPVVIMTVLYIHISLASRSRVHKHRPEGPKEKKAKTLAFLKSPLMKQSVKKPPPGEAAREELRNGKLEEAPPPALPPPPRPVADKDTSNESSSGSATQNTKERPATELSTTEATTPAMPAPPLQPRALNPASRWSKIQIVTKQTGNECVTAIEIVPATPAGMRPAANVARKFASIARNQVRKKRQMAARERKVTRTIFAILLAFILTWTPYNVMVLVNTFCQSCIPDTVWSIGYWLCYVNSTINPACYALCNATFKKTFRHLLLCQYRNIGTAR
Nature of the series: PAM agonistic activity of compound on M4 receptor (FLIPR Calcium 6 assay in M4-CHO cells). Format: cell-based. As to conditions: with acetylcholine (Ach), final concentration 3 nM. In short, it runs like this:
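CHO cells expressing M4, plated 16–20 h, loaded 120 min at 37 °C with Calcium 6 dye. Test compound added together with acetylcholine (3 nM final) on FLIPR Tetra; fluorescence read at 515–575 nm. EC50 from nonlinear regression of signal versus concentration.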

Series [3] is described as follows: Pharmacokinetic test in rats (plasma and brain). Format: in vivo, SD rats. The text has this:
3.1 Experimental animals: male SD rats, about 220 g, 6-8 weeks old, divided into an intravenous group and an intragastric group.
3.2 Experimental design: on the day of the experiment, the SD rats were randomly grouped according to their body weights. […] Table 5. Administration information
The whole blood was centrifuged to separate the plasma; the brain tissue was rinsed with cold physiological saline to remove the residual blood on the surface, drained out and then homogenized. Before analysis and detection, all samples were stored at -80°C, and the samples were quantitatively analysed by LC-MS/MS. Table 6. Pharmacokinetic parameters of test compound in plasma of rats

Where [4] appears, read: cynomolgus monkey, plasma, i.v. 1 mg/kg and i.g. 5 mg/kg groups, route of the parameter not given.
Setting [5] is: mouse, male C57 mice, plasma, i.v. 2.5 mg/kg and i.g. 10 mg/kg groups, route of the parameter not given.
Setting [6] is: rat, male SD rats, plasma, i.v. 2.5 mg/kg and i.g. 10 mg/kg groups, route of the parameter not given.

Some results are limits rather than exact numbers.

As a reminder, the Cmax is the peak of the concentration-time curve. What is called clearance is a measure of how efficiently the substance is removed, as volume per time. Low readings indicate inefficient removal, high ones efficient removal. By half-life is commonly meant the time in which the quantity being followed falls by half. A high value points to slow loss. The term EC50 denotes the midpoint of the concentration-response curve. Take `Cc1cc(=O)n(C(F)F)c2c1CN(C(=O)CC1CN(c3ccnc(OC4CC(F)(F)C4)c3)C1)C2` [Compound 128]: the AUC(0-t) came to 5940 ng·h/mL in series [1] (setting [4]); 9680 ng·h/mL in series [2] (mouse, plasma, po, mice, i.g. (10 mg/kg), read-out: Plasma AUC0-t); 25700 ng·h/mL in series [2] (mouse, male C57 mice, plasma, i.v. 2.5 mg/kg and i.g. 10 mg/kg groups, route of the parameter not given, read-out: AUC0-t); 46100 ng·h/mL in series [3] (rat, plasma, po, rats, i.g. (10 mg/kg), read-out: Plasma AUC0-t); 34000 ng·h/mL in series [3] (rat, male SD rats, plasma, i.v. 2.5 mg/kg and i.g. 10 mg/kg groups, route of the parameter not given, read-out: AUC0-t). The Cmax was 495 ng/mL in series [1] (setting [4]), 6030 ng/mL in series [2] (setting [5]) and 5140 ng/mL in series [3] (setting [6]). The clearance in series [1] (setting [4]) was 10.1 mL/min/kg; in series [2] (setting [5]), 6.91 mL/min/kg; in series [3] (setting [6]), 6.33 mL/min/kg. For the same molecule, the half-life in series [1] (setting [4]) was 7.19 h; in series [2] (setting [5]) it was 2.25 h; in series [3] (setting [6]), 4.68 h. For the same molecule, the F in series [1] (i.g. 5 mg/kg versus i.v. 1 mg/kg) is given as 71.4%; in series [2] (male C57 mice, i.g. 10 mg/kg versus i.v. 2.5 mg/kg), above 98%; in series [3] (male SD rats, i.g. 10 mg/kg versus i.v. 2.5 mg/kg) it was above 98%. The “Brain tissue AUC0-t” value turned out to be 5618 ng·h/g in series [2] (mice, i.g. (10 mg/kg)) and 22917 ng·h/g in series [3] (rats, i.g. (10 mg/kg)). The Kp in series [2] (mouse, brain/plasma, po, mice, i.g. (10 mg/kg), read-out: Brain/plasma ratio) worked out at 0.581; in series [3] (rat, brain/plasma, po, rats, i.g. (10 mg/kg), read-out: Brain/plasma ratio) it was 0.497. Further, the concentration giving a half-maximal response (EC50) at M4 receptor is below 100 nM.

Values taken from patent EP4733303A1, “MUSCARINIC M4 RECEPTOR AGONIST AND USE THEREOF” (Haisco Pharmaceutical Group Co., Ltd., priority 2023, dated 2024).
